Where two headings read alike, the source gives them in different places.
Key:
[1] = system: Env 134-specific T cell line; assay: Env 134-specific T cell line (stimulated five times with the immunizing peptide): recognition and titration of variant peptides; assay type: cell-based, mouse; conditions: Env 134 line; for Peptide concentration at which any IFN-γ secretion was detected: highest peptide concentration examined; for Enrichment of CTL able to recognize the peptide: one versus five stimulations; for Affinity reduced from the parent peptide: peptide titration
[2] = system: Gag 386-specific T cell line; assay: Gag 386-specific T cell line (stimulated five times with the immunizing peptide): recognition and titration of variant peptides; assay type: cell-based, mouse; conditions: Gag 386 line; for Peptide affinity (titration against CTL stimulated 5 times with the parent peptide): IFN-γ
Description: Recognition after multiple restimulations The observed recognition of variant peptides by CTL raised against the parent peptide might be due to either promiscuous recognition at the level of a single TCR or simply a mixture of TCRs against the immunizing peptide which are each able to recognize subtly different peptides. To distinguish between these two possibilities, Env 134- or Gag 386-specific T cell lines were generated by stimulating five times with the immunizing peptide, and then tested for recognition of a partial panel of variant peptides. These T cell lines were also characterized for Vβ TCR usage against a panel of antibodies predicted to react with the TCR of the mouse strains utilized for these experiments.
Because the SU is a measure of the number of cells needed to secrete a defined amount of IFN-γ, a higher SU value would correspond to an enrichment of IFN-γ, producing cells.
Both lines were also characterized with regard to the affinity of certain of the variant peptides by titrating the variant peptides examined above (Table 5A and 5B).

Gag 271 variants = assay: Gag 271 variant immunogenicity tested using HLA-A2 transgenic mice; assay type: in vivo; conditions: 167 HIV variants
Description: This particular group of 21 epitopes was selected based on their identity conservation in Clade B HIV sequences, with conservation across HIV clades as a secondary consideration. Because of this criteria, the form of epitope chosen as the parent peptide was not the most common variant (e.g. Gag 386, Gag 271, Pol 98). In some cases (e.g., see Gag 386 data), the “parent” epitope and the most common variant were recognized to the same extent. However, in some cases the selection of epitope to include as the “parent” epitope was predicted to make a difference in the immunological conservation. An example of this was the Gag 271 epitope (FIG. 4). The variant most commonly seen in clade B sequences was the […] form, while the most common form of the epitope was […]. Not all amino acids are considered equal to each other in their ability to substitute (Tangri). For example, asparagine (N) is considered a conservative substitution for serine (S), while the opposite substitution in only considered semi-conserved. When the program calculated immunological conservation using the […] peptide as the parent peptide, only two variants were predicted to be immunogenic. […] This prediction was tested using HLA-A2 transgenic mice. […] This has important implications in epitope selection for vaccine development, and epitope performance can be predicted.

normal human T cells = assay type: cell-based
[3] = system: patients with recurrent or residual cervical carcinoma; conditions: co-emulsified with HPV-derived CTL epitopes, cited from earlier work
HLA-DR molecules = conditions: cited from earlier work
[4] = system: CTL primed against the parent peptide; assay: Recognition of variant peptides by CTL from DNA-immunized HLA-A11/K^b transgenic mice (IFN-γ secretion after restimulation of splenocytes); assay type: cell-based; conditions: parent Pol 98
Description: Variants corresponding to five HLA-A2 and -A3 restricted epitopes from 167 HIV varianst were identified and synthesized. These represented all the complete sequences in the Los Alamos database at the time (116 strains), as well as 51 complete clade C sequences from Botswana, and included 22 subtype B and 62 subtype C sequences. These peptides were then characterized with regard to MHC binding, variant distribution, and immunogenicity. To measure immunogenicity, HLA-A2/K^b or HLA-A11/K^b transgenic mice were immunized with the epitopes encoded in a DNA based format ( ). Eleven days after immunization, splenocytes were restimulated with either the epitope corresponding to the epitope encoded by the DNA (parent) or each of the variant peptides. After 6 days in culture, IFN-γ secretion was measured in response to the peptide used to stimulate each culture.

With KLTPFCVTL [Env 134 variant] as the substance, how does the “Activity as measured by SU after five restimulations” value (“Activity as measured by SU” for short) [1] read?
Its value is “lowest activity”.

What about the “Peptide concentration at which any IFN-γ secretion was detected” value (shortened to “Peptide concentration”) [1] of the same substance?
Its value is 1 µg/mL.

And the “Enrichment of CTL able to recognize the peptide” value (shortened to “Enrichment of CTL able”) [1]?
Its value is “little or no enrichment”.

Which “Peptide affinity (titration against CTL stimulated 5 times with the parent peptide)” value (from here on “Peptide affinity”) [2] does the source give for “VLAEAMSQI [Gag 386 single anchor variant]” here?
Its value is “highest affinity”.

With MTNNPPIPV as the substance, how does the “Variants that would be recognized if this form of the peptide was utilized in vaccines” value (Gag 271 variants) read?
Its value is 39 of 167 variants.

With aKXVAAWTLKAAa-NH2 [PADRE®] as the substance, how does the “Potency relative to TT 830-843 antigen for activation of T cell responses, on a molar basis” value (normal human T cells) read?
The value was “about 100 fold”.

What about the “Donors with primary T cell responses” value (normal human T cells; three normal donors tested) of the same substance?
Its value is “three”.

And the Safety [3]?
The Safety was “favorable safety profile”.

And the “Patients in whom PADRE T cell reactivity was detected” value ([3]; immunocompromised patients)?
The value was “four”.

For KITPLCVTL [Env 134 variant], which “Affinity reduced from the parent peptide” value [1] is on record?
Its value is “approximately 10 fold”.

With VLAEAMSQV [Gag 386] as the substance, how does the “Peptide affinity” value [2] read?
Its value is “highest affinity”.

For QITPLCVTL [Env 134 variant], which “Activity as measured by SU” value [1] is on record?
The value was “lowest activity”.

And the “Peptide concentration” value [1]?
Its value is 1 µg/mL.

And the “Enrichment of CTL able” value [1]?
The value was “little or no enrichment”.

What does the source list for KLTPLCVIL [Env 134 variant]?
Activity as measured by SU after five restimulations [1]: lowest activity; Peptide concentration at which any IFN-γ secretion was detected [1]: 1 µg/mL; Enrichment of CTL able to recognize the peptide [1]: little or no enrichment

For ILAEAMSKA [Gag 386 variant], which “Recognition of variant peptides (SU, IFN-γ), one versus five peptide stimulations” value [2] is on record?
Its value is “never recognized”.

And the “Peptide affinity” value [2]?
The value was “not recognized”.

With QYIKANSKFIGITE [TT 830-843] as the substance, how does the “Antigen concentration at which the 10,000 cpm proliferation level was reached” value (normal human T cells) read?
The value was “about 10,000 ng/ml”.

And the “Donors with primary T cell responses” value (normal human T cells)?
Its value is 2.

What about the DR molecules bound (HLA-DR molecules) of the same substance?
The DR molecules bound was “seven”.

For VSIKVGGQIK, which “Recognition relative to the parent peptide” value [4] is on record?
The value was no more than 10 fold.

For QLTPLCVTL [Env 134 variant], which “Affinity reduced from the parent peptide” value [1] is on record?
The value was roughly 100 fold.

What does the source list for KLTPLCVPL [Env 134 variant]?
Activity as measured by SU after five restimulations [1]: lowest activity; Peptide concentration at which any IFN-γ secretion was detected [1]: 1 µg/mL; Enrichment of CTL able to recognize the peptide [1]: little or no enrichment

For MTSNPPIPV, which “Variants that would be recognized if this form of the peptide was utilized in vaccines” value (Gag 271 variants) is on record?
Its value is “approximately 152 of 167 variants”.

For ELTPLCVTL [Env 134 variant], which “Activity as measured by SU” value [1] is on record?
The value was “lowest activity”.

What about the “Peptide concentration” value [1] of the same substance?
The value was 1 µg/mL.

What about the “Enrichment of CTL able” value [1] of the same substance?
The value was “little or no enrichment”.

Source: US20070054262A1, “Methods of identifying optimal variants of peptide epitopes” (priority 2003, published 2007)
